Columns and labels:
[1] = Solubility of dolutegravir in types of potable water (FIG. 1); type: physicochemical; conditions: water with no ions present (purified water) vs other types of potable water
Description: The solubility of dolutegravir is affected by the use of different types of potable water, for example purified water, tap water and different brands of bottled water (see FIG. 1). The reason for this difference in solubility is believed to be due to the presence of ions typically found in water. When water with no ions present (purified water) is used to disperse dolutegravir, the solubility of dolutegravir is increased and a significant bitter taste may be observed.

[2] = Dolutegravir solubility in the presence of monovalent and divalent ions; type: physicochemical; conditions: thermodynamic from solid, 20 mg in 12 ml
Procedure: Solubility was determined by dissolving 20 mg of dolutegravir into 12 ml of water containing the specified ion (see Table 1) at a concentration of 500 ppm.

Q: Which solubility of dolutegravir [1] does the source give for `C[C@@H]1CCO[C@H]2Cn3cc(C(=O)NCc4ccc(F)cc4F)c(=O)c(O)c3C(=O)N12` [Dolutegravir, (4RX,12aS)-N-[(2,4-difluorophenyl)methyl]-7-hydroxy-4-methyl-6,8-dioxo-3,4,12,12a-tetrahydro-2H-pyrido[5,6]pyrazino[2,6-b][1,3]oxazine-9-carboxamide] here?
A: increased

Q: What about the solubility ([2]; aqueous buffer, water containing calcium ion 500 ppm) of the same compound?
A: 30 µg/mL

Q: And the solubility ([2]; aqueous buffer, water containing magnesium ion 500 ppm)?
A: 210 µg/mL

Q: What about the solubility ([2]; aqueous buffer, water containing potassium ion 500 ppm) of the same compound?
A: 780 µg/mL

Q: What about the solubility ([2]; aqueous buffer, water containing sodium ion 500 ppm) of the same compound?
A: 460 µg/mL

Q: And the solubility ([2]; no ion (purified water))?
A: 1200 µg/mL

Reference: US20230285307A1, “Dispersible Tablet Formulations Comprising Dolutegravir” (ViiV Healthcare Company, priority 2020, published 2023)
